Experimental data reported in patent US20050209198A1, “Pharmaceutical composition comprising a bisphosphonate and a cox-2 inhibitor for the treatment of bone diseases” (priority 2002, published 2005).

Assays:
[1] = test system: patients with postmenopausal osteoporosis; test: Pain scores and general well being in the same trial, oral COX-2 inhibitor vs oral placebo; assay type: in vivo; conditions: 400 mg per day p.o. vs oral placebo, on zoledronic acid or placebo background
Method: (§1) A dose and dose regimen-finding 24 months trial of iv zoledronic acid in patients with postmenopausal osteoporosis is carried out. Three hundred and fifty one patients are randomized to six study arms. […] All patients are evaluated at baseline and in 3-monthly visits. Zoledronic acid or placebo was administered as a bolus iv injection into a peripheral vein over 5 minutes at every visit. Patients from both zoledronic acid treated and placebo groups also receive an oral COX-2 inhibitor (5-methyl-2-(2′-chloro-6′-fluoroanilino)phenylacetic acid—400 mg per day p.o.) or oral placebo.
(§2) Efficacy is ascertained by measurement of percent change from baseline in bone mineral density (BMD) measured by dual energy X-ray absorptiometry (DEXA) as compared to placebo, at 6, 9, and 12 months. Patients also maintain records of pain scores on a once weekly basis and are monitored for pain scores at the 3-monthly visits.

[2] = test system: patients with postmenopausal osteoporosis; test: 24 months trial of iv zoledronic acid, bone mineral density (BMD) by DEXA; assay type: in vivo; conditions: bolus iv, dose administration as infrequent as every 6 or 12 months, compared to placebo
Method: as §1, §2
• Placebo • 0.25 mg zoledronic acid every 3 months • 0.5 mg zoledronic acid every 3 months • 1.0 mg zoledronic acid every 3 months • 2.0 mg zoledronic acid every 6 months • 4.0 mg zoledronic acid every 12 months each with 50% COX-2 treatment and 50% oral placebo.

SMILES	pain scores and general well being of patients [1]	bone mineral density (BMD), bone mass change [2]
Cc1ccc(Nc2c(F)cccc2Cl)c(CC(=O)O)c1 [COX-2, 5-methyl-2-(2′-chloro-6′-fluoroanilino)phenylacetic acid]	show improvement over the oral placebo treated groups	
O=P(O)(O)C(O)(Cn1ccnc1)P(=O)(O)O [zoledronic acid, 1-hydroxy-2-(imidazol-1-yl)ethane-1,1-diphosphonic acid]		statistically significant and medically relevant bone mass increase
